This data set in a line: Stability studies of compound of formula II on storage; degradation products estimated by HPLC. In kind it is physicochemical. From the text:
Apparatus: A High Performance Liquid Chromatograph equipped with quaternary gradient pumps, variable wavelength UV detector attached with data recorder and Integrator software or equivalent.
Column: Zorbax Eclipse XDB C-8, 150 mm×4.6 mm, 5μ or equivalent
Mobile phase: A: Buffer B: Methanol (Gradient Program)
Buffer: Water, pH adjusted to 2.2 with trifluoroacetic acid solution. Filter through 0.45μ filter paper and degas.
Diluent: Water: Methanol (20:80 v/v)
Detection wavelength: UV 270 nm
Column temperature: 25° C.
25 mg of the compound was weighed and transferred into a 50 mL volumetric flask. Methanol (5 ml) was added and it was sonicated to dissolve. The diluent was added to make up the solution to the mark of the flask.
The equal volumes of blank (diluent) and test solution were separately injected into the High Performance liquid chromatography. The responses were recorded eliminating the peaks due to blank and the chromatographic purity by area was calculated by normalization method.
The compound of formula II was stored under conditions as shown in below table and a total amount of degradation products (related substances) as well as single maximum impurity formed during storage was estimated by HPLC. The material was packed in inner clear polythene bag under nitrogen lined with black polythene bag, covered with triple laminated aluminium bag placed in HDPE drum and subjected to the conditions mentioned in the table 5.
The result of stability studies of compound of formula (II) carried out under the conditions mentioned in the table 5 is presented in tables 6 and 7.

The mark [1] stands for this setting: storage condition 1: 25 ± 2° C., 60 ± 5% RH, storage period 0 months.
[2] abbreviates: storage condition 1: 25 ± 2° C., 60 ± 5% RH, storage period 3 months.
[3] abbreviates: storage condition 1: 25 ± 2° C., 60 ± 5% RH, storage period 6 months.
Setting [4] is: storage condition 2: 40 ± 2° C., 75 ± 5% RH, storage period 0 months.
Where [5] appears, read: storage condition 2: 40 ± 2° C., 75 ± 5% RH, storage period 1 month.
Setting [6] is: storage condition 2: 40 ± 2° C., 75 ± 5% RH, storage period 2 months.
Setting [7] is: storage condition 2: 40 ± 2° C., 75 ± 5% RH, storage period 3 months.
Setting [8] is: storage condition 2: 40 ± 2° C., 75 ± 5% RH, storage period 6 months.

Consider `CC(C)(C)C(=O)NCc1ccc(Cl)c(-c2nn(-c3ccc(C(F)(F)F)cc3)c(=O)[nH]2)c1` [compound of formula II, N-(4-chloro-3-(5-oxo-1-(4-(trifluoromethyl)phenyl)-4,5-dihydro-1H-1,2,4-triazol-3-yl)benzyl)pivalamide], for which the Related substances reads like this: under setting [1], 0.13%; under setting [2], 0.14%; under setting [3], 0.14%; under setting [4], 0.13%; under setting [5], 0.14%; under setting [6], 0.13%. In addition, the Related substances runs as follows: under setting [7], 0.14%; under setting [8], 0.13%. The Single max. impurity by setting is: under setting [1], 0.13%; under setting [2], 0.14%; under setting [3], 0.14%; under setting [4], 0.13%; under setting [5], 0.14%; under setting [6], 0.13%. Also, the Single max. impurity is 0.14% under setting [7] and 0.13% under setting [8].
